Where two headings read alike, the source gives them in different places.
Molecular target: T1, human sirtuin-1 (Sirt1) (Homo sapiens, UniProt Q96EB6)
T1 construct: purchased BioMol, Hamburg, Germany
T1 sequence (Q96EB6 1-747): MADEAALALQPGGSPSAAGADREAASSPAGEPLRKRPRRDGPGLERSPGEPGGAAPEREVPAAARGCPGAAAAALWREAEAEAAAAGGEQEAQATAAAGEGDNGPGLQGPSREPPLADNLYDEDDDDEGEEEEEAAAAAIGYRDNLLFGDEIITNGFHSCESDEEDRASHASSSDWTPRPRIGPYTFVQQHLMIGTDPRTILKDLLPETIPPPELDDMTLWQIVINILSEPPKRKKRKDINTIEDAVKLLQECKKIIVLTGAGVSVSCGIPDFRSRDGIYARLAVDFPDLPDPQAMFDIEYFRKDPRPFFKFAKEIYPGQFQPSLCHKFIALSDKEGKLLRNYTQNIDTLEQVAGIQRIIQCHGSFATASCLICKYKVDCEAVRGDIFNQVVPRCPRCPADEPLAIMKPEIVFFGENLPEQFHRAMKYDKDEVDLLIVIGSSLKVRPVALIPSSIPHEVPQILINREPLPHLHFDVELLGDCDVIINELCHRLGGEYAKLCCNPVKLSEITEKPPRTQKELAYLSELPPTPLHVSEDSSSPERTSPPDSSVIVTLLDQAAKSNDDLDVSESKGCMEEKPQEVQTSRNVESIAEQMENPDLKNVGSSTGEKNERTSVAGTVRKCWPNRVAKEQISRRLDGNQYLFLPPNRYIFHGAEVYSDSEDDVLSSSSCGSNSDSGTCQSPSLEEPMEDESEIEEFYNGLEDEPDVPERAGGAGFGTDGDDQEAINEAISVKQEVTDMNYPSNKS
Assay: SIRT1 Fluorimetric Drug Discovery Kit, Sirt1 activation
Assay type: biochemical
Method: Compounds were tested for Sirt1 activation using the SIRT1 Fluorimetric Drug Discovery Kit (BioMol, Hamburg, Germany), Testing was carried out in duplicate following the manufacturer's instructions. Assay medium: 50mM Tris-HCl pH 8.0, 137 mM NaCl, 2.7 mM KCI, 1 mM MgCl2, 1 mg/ml bovine serum albumin (BSA). Stock solutions of the test compounds (10 mM in DMSO) were used, yielding a final concentration of 10 µM in the assay plate. Readout was obtained by measuring the fluorescence in a microtiter plate reader (excitation: 380 nm; detection: 440 nm).
The agonistic effect on Sirt1 was determined at different concentrations. For this purpose, the test compound stock solutions were diluted to yield concentrations of 0.3, 1, 3, 10 and 30 µM, respectively, in the assay, which was performed as described above. The compound of structure (I-1) was selected for this experiment.
The selectivity of the agonistic effect of the compound of formula (I-1) on different sirtuin isoforms was investigated. For this purpose, in vitro testing was performed as described in Example 1 using the respective SIRT1 Fluorimetric Drug Discovery Kit, SIRT2 Fluorimetric Drug Discovery Kit, and SIRT3 Fluorimetric Drug Discovery Kit (each from BioMol, Hamburg, Germany). […] The dose-response effect is slightly lesser on Sirt3. Table 3: Activity on Sirt1

Fold increase in sirt1 activity versus control (Example 1(a), 10 µM, trans-resveratrol as control (1.0)): 23.9 | remaining activity at 0.3 µM (Example 1(b), Table 2, 0.3 µM, read-out: Activity [% control]): 147% | remaining activity at 1 µM (Example 1(b), Table 2, 1.0 µM, read-out: Activity [% control]): 233% | remaining activity at 3 µM (Example 1(b), Table 2, 3.0 µM, read-out: Activity [% control]): 434% | remaining activity at 10 µM (Example 1(b), Table 2, 10.0 µM, read-out: Activity [% control]): 626% | EC300 (Example 1(b), concentration that gave 3-times the basal response of the enzyme): 2.0 µM | remaining activity at 0.3 µM (Example 2, Table 3, 0.3 µM, read-out: Activity [% control]): 111% | remaining activity at 1 µM (Example 2, Table 3, 1.0 µM, read-out: Activity [% control]): 121% | remaining activity at 3 µM (Example 2, Table 3, 3.0 µM, read-out: Activity [% control]): 168% | remaining activity at 10 µM (Example 2, Table 3, 10.0 µM, read-out: Activity [% control]): 256% | remaining activity at 30 µM (Example 2, Table 3, 30.0 µM, read-out: Activity [% control]): 515% | EC300 (Example 2, Table 6, Sirt1): 12.9 µM
Compound: CCOC(=O)c1c(O)cccc1/C=C/c1ccc(OCC)cc1 [(I-1)]
